These results are taken from patent US8969554B2, “6-acyl-1,2,4-triazine-3,5-dione derivative and herbicides” (Kumiai Chemical Industry Co., Ltd., priority 2010, dated 2015).

Common to all, as to type: in vivo
Test [1] deals with Indian millet. In words: Herbicidal activity by field soil treatment (Test example 2). Also on record: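 index 0 to 10 in 10% steps of herbicidal effect with 10 meaning complete death and 0 below 10%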. The note with it: 1000 g effective component per hectare, day 21 after the treatment. The gist of the method:
(§1)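 Seeds of the four weeds sown in field soil in pots; wettable powder diluted in water sprayed pre-emergence on soil surface at 1000 L/ha, giving 1000 g active per hectare. Greenhouse grown; herbicidal effect scored on day 21 after treatment by set criteria.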

Test [2] has as its system A. retroflexus. The description is as above. Further details: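 index 0 to 10 in 10% steps of herbicidal effect with 10 meaning complete death and 0 below 10%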. The note with it: 1000 g effective component per hectare, day 21 after the treatment. The method, boiled down:
as §1

In test [3] the test system is Echinochloa crus-galli. In words: Herbicidal activity by field foliage treatment (Test example 3). The note with it: 1000 g effective component per hectare, day 14 after the treatment. Further details: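 index 0 to 10 in 10% steps of herbicidal effect with 10 meaning complete death and 0 below 10%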. The gist of the method:
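Potted field-soil plants grown 2 weeks in a greenhouse were sprayed over the whole foliage with diluted wettable powder at 1000 L/ha, delivering 1000 g active ingredient per hectare. Herbicidal effect scored by visual criteria 14 days after treatment.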

In test [4] the test system is Echinochloa oryzicola. Description: Herbicidal activity by paddy field soil treatment (Test Example 1). Also on record: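 index 0 to 10 in 10% steps of herbicidal effect with 10 meaning complete death and 0 below 10%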. The note with it: 1000 g of effective component per hectare, evaluated on day 21 after the treatment, criteria of Table 72. The method, boiled down:
(§2)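 Paddy soil in pots sown with seeds, flooded to 3 cm; next day wettable powder diluted in water applied to water surface at 1000 g active ingredient/ha. Greenhouse-grown; herbicidal effect scored on day 21 after treatment against rating criteria.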

For test [5], the system named is Scirpus juncoides Rocxb. The description is as above. Further details: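 index 0 to 10 in 10% steps of herbicidal effect with 10 meaning complete death and 0 below 10%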. Particulars: applied on water surface, 1000 g of effective component per hectare, day 21 after the treatment. The gist of the method:
as §2

In test [6] the test system is Monochoria vaginalis. The description is as above. Also on record: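 index 0 to 10 in 10% steps of herbicidal effect with 10 meaning complete death and 0 below 10%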. Particulars: 1000 g of effective component per hectare, evaluated on day 21 after the treatment, criteria of Table 72. The gist of the method:
as §2

Test [7] has as its system Indian millet. In words: Herbicidal activity by field foliage treatment (Test example 3). Also on record: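 index 0 to 10 in 10% steps of herbicidal effect with 10 meaning complete death and 0 below 10%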. The note with it: 1000 g effective component per hectare, day 14 after the treatment. The method, boiled down: (§3)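 Field soil in pots; Indian millet and A. retroflexus grown 2 weeks in greenhouse, then sprayed over whole plant with water-diluted wettable powder at 1000 L/ha, giving 1000 g active component/ha. Herbicidal effect scored by set criteria on day 14 after treatment.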

Test [8] concerns A. retroflexus. The description is as above. Further details: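 index 0 to 10 in 10% steps of herbicidal effect with 10 meaning complete death and 0 below 10%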. Particulars: 1000 g effective component per hectare, day 14 after the treatment. The method, boiled down: as §3
Test [9] has as its system Setaria viridis. Described as above. The note with it: 1000 g effective component per hectare, day 14 after the treatment. The method, then:
Test example 3 Test for Determining Herbicidal Activity by Field Foliage Treatment A 80 cm^2 wide plastic pot was filled with a field soil and seeds of each of Indian millet and A. retroflexus were sowed and then incubated for 2 weeks in a green house. The wettable powder produced with reference to the Formulation example 1 was diluted water, and applied from the air to entire body of the plant as foliage treatment by using a small sprayer in an amount of 1000 liters per hectare so that the effective component is 1000 g per hectare. After that, the plants were cultivated in a greenhouse, and on day 14 after the treatment, evaluation was made by the criteria described in Table 72 for determining the herbicidal effects.

Test [10] relates to Echinochloa crus-galli. Description: Herbicidal activity by field soil treatment (Test example 2). Further details: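 index 0 to 10 in 10% steps of herbicidal effect with 10 meaning complete death and 0 below 10%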. Particulars: 1000 g effective component per hectare, day 21 after the treatment. The method, boiled down: as §1

Each structure is given as a SMILES string.
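For herbicidal effect index, Setaria viridis in this document: index 0 to 10 in 10% steps of herbicidal effect with 10 meaning complete death and 0 below 10%.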

Turning to `Cn1nc(C(=O)C2=C(O)CCCC2=O)c(=O)n(-c2cc(C(F)(F)F)cc(C(F)(F)F)c2)c1=O` [I-470], the “herbicidal effect index, Abutilon theophrasti” value stood at 7 in test [1] and 10 in test [7]. The “herbicidal effect index, Amaranthus retroflexus” value in test [2] was found to be 8; in test [8], 10. Besides, the “herbicidal effect index, Echinochloa crus-galli” value in [3] stood at 8. Further, the “Herbicidal effects index number, Echinochloa oryzicola” value in [4] is 10. Besides, the “herbicidal effect index, S. juncoides Rocxb.” value in test [5] is 10. The “Herbicidal effects index number, Monochoria vaginalis” value in test [6] is reported as 10. In addition, the “herbicidal effect index, Setaria viridis” value in test [9] came out at 9.

Regarding `Cn1nc(C(=O)O)c(=O)n(CC(=O)C(C)(C)C)c1=O` [V-362], the “herbicidal effect index, Amaranthus retroflexus” value in test [2] is recorded as 7; in test [8] it was 10. Moreover, the “herbicidal effect index, Echinochloa crus-galli” value in test [3] is recorded as 9. Further, the “Herbicidal effects index number, Echinochloa oryzicola” value in test [4] is listed as 10. The “herbicidal effect index, S. juncoides Rocxb.” value in test [5] was 10. The “Herbicidal effects index number, Monochoria vaginalis” value in test [6] was 10. Further, the “herbicidal effect index, Abutilon theophrasti” value in [7] is on record as 10. In test [9], the “herbicidal effect index, Setaria viridis” value is 9.

`COc1cc(-n2c(=O)c(C(=O)C3=C(O)CCCC3=O)nn(C)c2=S)cc(OC)c1OC` [I-464]: the results for the “herbicidal effect index, Amaranthus retroflexus” value in test [2] and in test [8] were 7 and 10, respectively. In addition, the “Herbicidal effects index number, Echinochloa oryzicola” value in test [4] is recorded as 10. In addition, the “herbicidal effect index, S. juncoides Rocxb.” value in [5] amounted to 10. For the same compound, in test [6], the “Herbicidal effects index number, Monochoria vaginalis” value amounted to 10. Besides, the “herbicidal effect index, Abutilon theophrasti” value in test [7] is listed as 10. The “herbicidal effect index, Setaria viridis” value in [9] came out at 7.

Turning to `Cn1nc(C(=O)C2=C(O)C(C)(C)C(=O)C(C)(C)C2=O)c(=O)n(-c2ccccc2)c1=O` [VI-1], the “herbicidal effect index, Abutilon theophrasti” value in [1] and in test [7] was 10 each time. For the same compound, the “herbicidal effect index, Amaranthus retroflexus” value in test [2] and in test [8] was 10 each time. The “herbicidal effect index, Echinochloa crus-galli” value in test [3] came out at 10. For the same compound, the “Herbicidal effects index number, Echinochloa oryzicola” value in [4] stood at 10. Moreover, the “herbicidal effect index, S. juncoides Rocxb.” value in test [5] came to 10. The “Herbicidal effects index number, Monochoria vaginalis” value in test [6] is 10. Besides, the “herbicidal effect index, Setaria viridis” value in test [9] is given as 10.

With `C#Cc1ccc(-n2c(=O)c(C(=O)C3=C(O)CCCC3=O)nn(C)c2=O)nc1` [I-463], the “herbicidal effect index, Abutilon theophrasti” value in test [1] came out at 10; in test [7], 9. Moreover, the “herbicidal effect index, Amaranthus retroflexus” value in [2] worked out at 7; in test [8] it was 10. Besides, in test [3], the “herbicidal effect index, Echinochloa crus-galli” value was 7. The “Herbicidal effects index number, Echinochloa oryzicola” value in [4] amounted to 10. In addition, the “herbicidal effect index, S. juncoides Rocxb.” value in test [5] was 10. In [6], the “Herbicidal effects index number, Monochoria vaginalis” value is on record as 10. Also, in test [9], the “herbicidal effect index, Setaria viridis” value was 7.

As for `COc1cc(-n2c(=O)c(C(=O)C3=C(O)C(C)(C)C(=O)C(C)(C)C3=O)nn(C)c2=O)cc(OC)c1OC` [VI-97], in test [3], the “herbicidal effect index, Echinochloa crus-galli” value came out at 7. Also, in test [4], the “Herbicidal effects index number, Echinochloa oryzicola” value is on record as 10. For the same compound, in [5], the “herbicidal effect index, S. juncoides Rocxb.” value was found to be 10. For the same compound, the “Herbicidal effects index number, Monochoria vaginalis” value in [6] amounted to 10. In addition, the “herbicidal effect index, Abutilon theophrasti” value in [7] is listed as 10. Besides, the “herbicidal effect index, Amaranthus retroflexus” value in test [8] is 10. Further, in test [9], the “herbicidal effect index, Setaria viridis” value is reported as 10.

Consider `Cn1nc(C(=O)C2=C(O)CCCC2=O)c(=O)n(-c2cc(Cl)c(Cl)c(Cl)c2)c1=O` [I-465], for which the “herbicidal effect index, Abutilon theophrasti” value in test [1] and in [7] was 10 each time. Besides, the “herbicidal effect index, Amaranthus retroflexus” value in [2] and in test [8] was 10 in each case. For the same compound, the “herbicidal effect index, Echinochloa crus-galli” value in [3] is recorded as 8. The “Herbicidal effects index number, Echinochloa oryzicola” value in test [4] is recorded as 10. Further, in test [5], the “herbicidal effect index, S. juncoides Rocxb.” value amounted to 10. Further, the “Herbicidal effects index number, Monochoria vaginalis” value in test [6] was 10. Besides, the “herbicidal effect index, Setaria viridis” value in [9] is reported as 10.

For the compound `CC(=O)Cn1c(=O)c(C(=O)C2=C(O)CCCC2=O)nn(C)c1=O` [I-328], in test [3], the “herbicidal effect index, Echinochloa crus-galli” value is 7. Besides, in test [4], the “Herbicidal effects index number, Echinochloa oryzicola” value is on record as 10. Further, the “herbicidal effect index, S. juncoides Rocxb.” value in test [5] amounted to 10. The “Herbicidal effects index number, Monochoria vaginalis” value in [6] is 10. Further, in test [7], the “herbicidal effect index, Abutilon theophrasti” value was determined as 10. In test [8], the “herbicidal effect index, Amaranthus retroflexus” value is 10. The “herbicidal effect index, Setaria viridis” value in test [9] is on record as 7.

For `Cn1nc(C(=O)C2=C(O)CCCC2=O)c(=O)n(-c2c(F)c(F)cc(F)c2F)c1=O` [I-469], the “herbicidal effect index, Echinochloa crus-galli” value in test [3] was determined as 10. Also, the “Herbicidal effects index number, Echinochloa oryzicola” value in test [4] was 10. Also, in [5], the “herbicidal effect index, S. juncoides Rocxb.” value is given as 10. Also, the “Herbicidal effects index number, Monochoria vaginalis” value in [6] is 10. For the same compound, the “herbicidal effect index, Abutilon theophrasti” value in test [7] was determined as 10. Besides, in test [8], the “herbicidal effect index, Amaranthus retroflexus” value was 10. Also, in [9], the “herbicidal effect index, Setaria viridis” value amounted to 10.

As for `Cn1nc(C(=O)O)c(=O)n(-c2cc(Cl)c(Cl)c(Cl)c2)c1=O` [V-358], the “herbicidal effect index, Abutilon theophrasti” value in test [1] and in test [7] was 10 in each case. In addition, the “herbicidal effect index, Amaranthus retroflexus” value in test [2] and in test [8] was 10 each time. The “herbicidal effect index, Echinochloa crus-galli” value in test [3] stood at 8. Moreover, the “Herbicidal effects index number, Echinochloa oryzicola” value in [4] is given as 10. Further, the “herbicidal effect index, S. juncoides Rocxb.” value in [5] is reported as 10. In addition, the “Herbicidal effects index number, Monochoria vaginalis” value in [6] came out at 10. The “herbicidal effect index, Setaria viridis” value in test [9] is 10.

Turning to `O=C1CCCC(O)=C1C(=O)c1nn(C(F)F)c(=O)n(-c2ccccc2)c1=O` [I-261], the “herbicidal effect index, Abutilon theophrasti” value in test [1] and in test [7] was 10 each time. Besides, the “Herbicidal effects index number, Echinochloa oryzicola” value in test [4] is 8. Also, the “herbicidal effect index, S. juncoides Rocxb.” value in [5] is listed as 8. The “Herbicidal effects index number, Monochoria vaginalis” value in test [6] turned out to be 10. The “herbicidal effect index, Amaranthus retroflexus” value in [8] turned out to be 10. Besides, the “herbicidal effect index, Setaria viridis” value in test [9] was found to be 7.

Turning to `Cn1nc(C(=O)O)c(=O)n(-c2c(F)c(F)cc(F)c2F)c1=O` [V-363], in test [3], the “herbicidal effect index, Echinochloa crus-galli” value is 10. Besides, in [4], the “Herbicidal effects index number, Echinochloa oryzicola” value turned out to be 10. Besides, the “herbicidal effect index, S. juncoides Rocxb.” value in test [5] is listed as 10. Moreover, the “Herbicidal effects index number, Monochoria vaginalis” value in test [6] amounted to 10. Further, the “herbicidal effect index, Abutilon theophrasti” value in test [7] is listed as 10. Further, in test [8], the “herbicidal effect index, Amaranthus retroflexus” value is 10. Moreover, the “herbicidal effect index, Setaria viridis” value in test [9] was 10.

Regarding `CCn1nc(C(=O)C2=C(O)CCCC2=O)c(=O)n(-c2ccccc2)c1=O` [I-259], the “herbicidal effect index, Echinochloa crus-galli” value in test [10] and in [3] was 10 each time. Further, the “herbicidal effect index, Abutilon theophrasti” value came to 8 in test [1] and 10 in test [7]. For the same compound, the “herbicidal effect index, Amaranthus retroflexus” value in [2] and in test [8] was 10 throughout. Further, in test [4], the “Herbicidal effects index number, Echinochloa oryzicola” value came out at 10. Also, in test [5], the “herbicidal effect index, S. juncoides Rocxb.” value is reported as 10. The “Herbicidal effects index number, Monochoria vaginalis” value in test [6] was determined as 10.

As to `Cc1cccc(-n2c(=O)c(C(=O)C3=C(O)CCCC3=O)nn(C)c2=O)c1F` [I-107], the figures for the “herbicidal effect index, Echinochloa crus-galli” value in [10] and in test [3] were 8 and 7, respectively. The “herbicidal effect index, Abutilon theophrasti” value amounted to 10 in test [1] and 9 in test [7]. Also, the “herbicidal effect index, Amaranthus retroflexus” value in test [2] and in [8] was 10 throughout. Moreover, the “Herbicidal effects index number, Echinochloa oryzicola” value in test [4] is on record as 10. Moreover, the “herbicidal effect index, S. juncoides Rocxb.” value in [5] is on record as 10. For the same compound, in test [6], the “Herbicidal effects index number, Monochoria vaginalis” value is on record as 10.

For `Cn1nc(C(=O)C2=C(O)CCCC2=O)c(=O)n(CC(=O)C(C)(C)C)c1=O` [I-468], the “herbicidal effect index, Amaranthus retroflexus” value in test [2] stood at 7; in [8] it was 10. The “herbicidal effect index, Echinochloa crus-galli” value in test [3] is reported as 9. In addition, the “Herbicidal effects index number, Echinochloa oryzicola” value in [4] was found to be 10. In addition, in test [5], the “herbicidal effect index, S. juncoides Rocxb.” value is 10. Moreover, the “Herbicidal effects index number, Monochoria vaginalis” value in test [6] came out at 10. In addition, the “herbicidal effect index, Abutilon theophrasti” value in test [7] is 10. Moreover, in test [9], the “herbicidal effect index, Setaria viridis” value stood at 9.
